Results from patent US12384800B2, “Antitumoral compounds” (priority 2017, dated 2025).
Several values for one entry are separate records, joined by “and”; a condition that tells them apart may be missing. Equal entries are not always repeated.

Columns and labels:
[1] = system: HT29 cells (colorectal adenocarcinoma); experiment: cells; settings: Homo sapiens, HT-29, 72 h
Procedure, shortened: (§1)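 Cells seeded at 5000/well, attached 18 h, then exposed 72 h to ten 2/5 serial dilutions (10 to 0.003 μg/mL; 1% DMSO final) in triplicate; time-zero plate fixed. SRB staining after glutaraldehyde fixation; growth effects by NCI algorithm, four-parameter logistic fit.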

[2] = system: PSN1 cells (pancreas adenocarcinoma); experiment: cells; settings: Homo sapiens, PSN1, 72 h
Procedure, shortened: as §1

[3] = system: MDA-MB-231 cells (breast adenocarcinoma); experiment: cells; settings: Homo sapiens, MDA-MB-231, 72 h
Procedure, shortened: as §1

[4] = system: A549 cells (lung carcinoma, NSCLC); experiment: cells; settings: Homo sapiens, A549, 72 h
Procedure, shortened: as §1

[5] = MTD (Maximum Tolerated Dose) determination, single iv administration; format: in vivo; settings: female, mouse, in vivo; mice; iv/SD (single dose); monitored up to 14 days
From the text: (§2) Female CD-1 or Athymic Nude-Fox1 nu/nu mice (Envigo) were utilized for all experiments. […] Animals were acclimated for five days prior to being individually tattoo-identified. Animal protocols were reviewed and approved according to the regional Institutional Animal Care and Use Committees.
(§3) Mice were randomly allocated into experimental groups and intravenously administered, once for the MTD (Maximum Tolerated Dose) determination or one administration a week during three consecutive weeks, for the MTMD (Maximum Tolerated Multiple Dose) determination study. The animals were administered with white formulation or with compound dissolved in the experimental formulation at different concentrations. The volume administered was always […]. Once administered, animals were monitored for clinical signs of systemic toxicity, changes in body weight and mortality up to 14 days after the administration.

[6] = MTMD (Maximum Tolerated Multiple Dose) determination, iv weekly x 3; format: in vivo; settings: mice; iv/Q7d × 3
From the text: as §2, §3

B16 melanoma = settings: U.S. Pat. No. 5,149,804; cited from earlier work
P388 lymphoma = settings: U.S. Pat. No. 5,149,804; cited from earlier work
Lewis lung carcinoma = settings: U.S. Pat. No. 5,149,804; cited from earlier work
A2780 tumors = experiment: Human ovarian xenograft, tumor volume
Description: (§4) Female athymic nu/nu mice (Harlan Laboratories Models, S.L. Barcelona, Spain or Envigo, Spain) were utilized for all experiments. Animal were housed in individually ventilated cages Sealsafe® Plus, Techniplast S.P.A.), up to ten per cage on a 12-hour light-dark cycle at 21-23° C. and 40-60% humidity. […] Animals were acclimated for at least 5 days prior to tumor implantation with a tumor cell suspension.
Culture cells were passaged every 3 to 5 days upon reaching confluence. Each animal was subcutaneously implanted (on the right flank using 26G needle and a 1 cc syringe) at 4-6 weeks of age with 10×10^6 A2780 cells suspended in 0.05 mL of a solution consisting of 50% Matrigel® (Corning Incorporated Life Sciences) and 50% medium without serum or antibiotics.
(§5) Treatment tolerability was assessed by monitoring body weight evolution, clinical signs of systemic toxicity, as well as evidences of local damage in the injection site.
(§6) In Xenograft Studies with Other Cell Lines: • Tumor volume was calculated using the equation (a·b^2)/2, where a: length (longest diameter) and b: width (shortest diameter) were measured in mm by using digital caliper (Fowler Sylvac, S235PAT).
(§7) Treatments producing >20% lethality and/or 20% net body weight loss were considered toxic.

HT1080 tumors = experiment: Human fibrosarcoma xenograft, total diameter (tumor + leg)
[7] = system: xenografted human tumor cell lines (breast, kidney and ovarian cancer); settings: xenografted human tumor cell lines in mice (breast, kidney and ovarian cancer); cited from earlier work
H460 tumors = experiment: Human lung (NSCLC) xenograft, tumor volume
Description: as §4
H460 cells were maintained in vitro at 37° C. with 5% CO2 in Dulbecco's Modified Eagle's Medium (Sigma-Aldrich, Co). Culture cells were passaged every 3 to 5 days upon reaching confluence. Each animal was subcutaneously implanted (on the right flank using 26G needle and a 1 cc syringe) at 4-6 weeks of age with 5×10^6 H460 cells suspended in 0.05 mL of a solution consisting of 50% Matrigel® (Corning Incorporated Life Sciences) and 50% medium without serum or antibiotics.
as §5, §6, §7
Tables and figures summarize the data obtained from complete experimental groups, i.e. those groups keeping the initial number of animals, n=8-10.

HGC27 tumors = experiment: Human gastric xenograft, tumor volume
Description: as §4
HGC27 cells were maintained in vitro at 37° C. with 5% CO2 in Iscove's Modified Dulbecco's Medium (Sigma Aldrich, Co). Culture cells were passage every 3 to 5 days on reaching confluence. Each animal was subcutaneously implanted (on the right flank using 26G needle and a 1 cc syringe) at 4-6 weeks of age with 5×10^6 HGC-27 cells suspended in 0.05 mL of a solution consisting of 50% Matrigel® (Corning Incorporated Life Sciences), 50% medium without serum or antibiotics.
as §5, §6, §7

MDA-MB-231 tumors = experiment: Human breast xenograft, tumor volume

For `COc1ccc2[nH]c3c(c2c1)C[C@@H](CO)N[C@]31CS[C@@H]2c3c(OC(C)=O)c(C)c4c(c3[C@H](COC1=O)N1[C@@H]2[C@H]2c3c(cc(C)c(OC)c3O)C[C@@H]([C@@H]1O)N2C)OCO4` [Compound 19-S], the GI50 [1] was 1.35 nM, the CC50 ([1]; read-out: LC50) was over 123 nM and the IC (total growth inhibition) ([1]; read-out: TGI) was 0.0016 µM. For the same compound, the GI50 [2] was 2.95 nM, the CC50 ([2]; read-out: LC50) was over 123 nM and the IC (total growth inhibition) ([2]; read-out: TGI) was 0.00319 µM. For the same compound, the GI50 [3] was 1.96 nM, the CC50 ([3]; read-out: LC50) was 11 nM and the IC (total growth inhibition) ([3]; read-out: TGI) was 0.00331 µM. It also gave a GI50 [4] of 3.07 nM, a CC50 ([4]; read-out: LC50) of over 123 nM and an IC (total growth inhibition) ([4]; read-out: TGI) of 0.00331 µM. It also gave an MTD at 14 days [5] of 0.5 mg/kg and an MTMD [6] of 0.75 mg/kg.
In the case of `COc1c(C)cc2c(c1O)[C@@H]1[C@@H]3[C@@H]4SC[C@]5(NCCc6c5[nH]c5ccccc65)C(=O)OC[C@@H](c5c6c(c(C)c(OC(C)=O)c54)OCO6)N3[C@@H](O)[C@H](C2)N1C` [ET-736, Ecteinascidin 736], the “protection of mice in vivo” value (B16 melanoma) is given as “protects mice in vivo at very low concentrations”, the “protection of mice in vivo” value (P388 lymphoma) is given as “protects mice in vivo at very low concentrations” and the “protection of mice in vivo” value (Lewis lung carcinoma) is given as “protects mice in vivo at very low concentrations”. It also gave an MTMD [6] of 0.5 mg/kg.
For `COc1ccc2[nH]c3c(c2c1)CCN[C@]31CS[C@@H]2c3c(OC(C)=O)c(C)c4c(c3[C@H](COC1=O)N1[C@@H]2[C@H]2c3c(cc(C)c(OC)c3O)C[C@@H]([C@@H]1O)N2C)OCO4` [PM01183, reference compound], the “Median Tumor Volume” value (A2780 tumors; Day 2) was 235.5 mm^3 and 236.5 mm^3, the “Median Tumor Volume” value (A2780 tumors; Day 3) was 454.5 mm^3 and the “Median Tumor Volume” value (A2780 tumors; Day 4) was 463.2 mm^3. For the same compound, the “Median Tumor Volume” value (A2780 tumors; Day 5) was 671.2 mm^3 and 772.1 mm^3, the “Median Tumor Volume” value (A2780 tumors; Day 7) was 1048.9 mm^3 and 1161.5 mm^3 and 986.3 mm^3 and the “Median Tumor Volume” value (A2780 tumors; Day 9) was 1451.4 mm^3. The “Median Tumor Volume” value (A2780 tumors; Day 10) was 1615.6 mm^3, the “Median Tumor Volume” value (A2780 tumors; Day 11) was 2062 mm^3 and 2062.0 mm^3 and the “Median Tumor Volume” value (A2780 tumors; Day 12) was 2020.3 mm^3 and 1703.0 mm^3. For the same compound, the “Median Tumor Volume” value (A2780 tumors; Day 14) was 2029.3 mm^3, the “Total diameter (tumor + leg)” value (HT1080 tumors; Day 2) was 9.8 mm and the “Total diameter (tumor + leg)” value (HT1080 tumors; Day 2, iv Days 0, 7 and 14, PM01183 […], Compound D 0.5 mg/kg) was 9.2 mm. For the same compound, the “Total diameter (tumor + leg)” value (HT1080 tumors; Day 5) was 9.7 mm, the “Total diameter (tumor + leg)” value (HT1080 tumors; Day 7) was 11.4 mm and the “Total diameter (tumor + leg)” value (HT1080 tumors; Day 7, iv Days 0, 7 and 14, PM01183 […], 4-R 0.30 mg/kg) was 11.2 mm. For the same compound, the “Total diameter (tumor + leg)” value (HT1080 tumors; Day 7, iv Days 0, 7 and 14, PM01183 […], Compound D 0.5 mg/kg) was 12.2 mm, the “Total diameter (tumor + leg)” value (HT1080 tumors; Day 9) was 12.7 mm and the “Total diameter (tumor + leg)” value (HT1080 tumors; Day 9, iv Days 0, 7 and 14, PM01183 […], 4-R 0.30 mg/kg) was 12.3 mm. The “Total diameter (tumor + leg)” value (HT1080 tumors; Day 9, iv Days 0, 7 and 14, PM01183 […], Compound D 0.5 mg/kg) was 12.6 mm, the “Total diameter (tumor + leg)” value (HT1080 tumors; Day 12) was 13.7 mm and the “Total diameter (tumor + leg)” value (HT1080 tumors; Day 12, iv Days 0, 7 and 14, PM01183 […], Compound D 0.5 mg/kg) was 13.1 mm. For the same compound, the “Total diameter (tumor + leg)” value (HT1080 tumors; Day 14) was 14.6 mm, the “Total diameter (tumor + leg)” value (HT1080 tumors; Day 14, iv Days 0, 7 and 14, PM01183 […], 4-R 0.30 mg/kg) was 14.6 mm and the “Total diameter (tumor + leg)” value (HT1080 tumors; Day 14, iv Days 0, 7 and 14, PM01183 […], Compound D 0.5 mg/kg) was 14.6 mm. For the same compound, the “Total diameter (tumor + leg)” value (HT1080 tumors; Day 16) was 15.5 mm, the “Total diameter (tumor + leg)” value (HT1080 tumors; Day 16, iv Days 0, 7 and 14, PM01183 […], Compound D 0.5 mg/kg) was 14.5 mm and the “Total diameter (tumor + leg)” value (HT1080 tumors; Day 19) was 15.6 mm. For the same compound, the “Total diameter (tumor + leg)” value (HT1080 tumors; Day 19, iv Days 0, 7 and 14, PM01183 […], Compound D 0.5 mg/kg) was 15.0 mm, the “Total diameter (tumor + leg)” value (HT1080 tumors; Day 21) was 18.0 mm and the “Total diameter (tumor + leg)” value (HT1080 tumors; Day 21, iv Days 0, 7 and 14, PM01183 […], 4-R 0.30 mg/kg) was 15.1 mm. For the same compound, the “Total diameter (tumor + leg)” value (HT1080 tumors; Day 21, iv Days 0, 7 and 14, PM01183 […], Compound D 0.5 mg/kg) was 18.0 mm, the “Total diameter (tumor + leg)” value (HT1080 tumors; Day 23, iv Days 0, 7 and 14, PM01183 […], 4-R 0.30 mg/kg) was 16.3 mm and the in vivo activity [7] was “significant in vivo activity”. The “Median Tumor Volume” value (H460 tumors; Day 2) was 457.0 mm^3, the “Median Tumor Volume” value (H460 tumors; Day 4) was 861.5 mm^3 and the “Median Tumor Volume” value (H460 tumors; Day 7) was 940.4 mm^3 and 1004.0 mm^3 and 1280.2 mm^3. The “Median Tumor Volume” value (H460 tumors; Day 9) was 1210.3 mm^3 and 1211.3 mm^3 and 1424.9 mm^3, the “Median Tumor Volume” value (H460 tumors; Day 11) was 1433.8 mm^3 and 1969.9 mm^3 and the “Median Tumor Volume” value (H460 tumors; Day 12) was 1515.4 mm^3. The “Median Tumor Volume” value (H460 tumors; Day 14) was 1529.5 mm^3 and 1633.3 mm^3, the “Median Tumor Volume” value (H460 tumors; Day 16) was 1723.9 mm^3 and the “Median Tumor Volume” value (H460 tumors; Day 19) was 2112.3 mm^3. The “Median Tumor Volume” value (H460 tumors; Day 21) was 2409.4 mm^3, the “Median Tumor Volume” value (HGC27 tumors; Day 2) was 317.5 mm^3 and 372.4 mm^3 and 395.6 mm^3 and the “Median Tumor Volume” value (HGC27 tumors; Day 5) was 404.0 mm^3 and 474.1 mm^3 and 572.4 mm^3. The “Median Tumor Volume” value (HGC27 tumors; Day 7) was 485.7 mm^3 and 571.8 mm^3 and 766.6 mm^3, the “Median Tumor Volume” value (HGC27 tumors; Day 9) was 604.6 mm^3 and 787.9 mm^3 and 950.7 mm^3 and the “Median Tumor Volume” value (HGC27 tumors; Day 12) was 760.8 mm^3 and 951.1 mm^3. The “Median Tumor Volume” value (HGC27 tumors; Day 14) was 789.6 mm^3 and 1064.4 mm^3 and 1199.4 mm^3, the “Median Tumor Volume” value (HGC27 tumors; Day 16) was 719.5 mm^3 and 1346.1 mm^3 and 1353.1 mm^3 and the “Median Tumor Volume” value (HGC27 tumors; Day 19) was 895.9 mm^3 and 1691.8 mm^3 and 1294.3 mm^3. For the same compound, the “Median Tumor Volume” value (HGC27 tumors; Day 21) was 1051.3 mm^3 and 1920.0 mm^3 and 1335.1 mm^3, the “Median Tumor Volume” value (HGC27 tumors; Day 23) was 2011.4 mm^3 and 1320.3 mm^3 and the “Median Tumor Volume” value (HGC27 tumors; Day 26) was 1901.2 mm^3 and 2102.2 mm^3 and 1364.5 mm^3. For the same compound, the “Median Tumor Volume” value (HGC27 tumors; Day 28) was 2028.9 mm^3, the “Median Tumor Volume” value (HGC27 tumors; Day 30) was 1671.9 mm^3 and the “Median Tumor Volume” value (HGC27 tumors; Day 33) was 2009.2 mm^3. For the same compound, the “Median Tumor Volume” value (MDA-MB-231 tumors; Day 4) was 177.2 mm^3, the “Median Tumor Volume” value (MDA-MB-231 tumors; Day 7) was 189.0 mm^3 and 185.9 mm^3 and 186.3 mm^3 and the “Median Tumor Volume” value (MDA-MB-231 tumors; Day 11) was 250.7 mm^3. The “Median Tumor Volume” value (MDA-MB-231 tumors; Day 14) was 230.1 mm^3 and 290.8 mm^3 and 266.1 mm^3, the “Median Tumor Volume” value (MDA-MB-231 tumors; Day 18) was 327.7 mm^3 and the “Median Tumor Volume” value (MDA-MB-231 tumors; Day 21) was 305.9 mm^3 and 337.9 mm^3 and 391.0 mm^3. For the same compound, the “Median Tumor Volume” value (MDA-MB-231 tumors; Day 25) was 493.1 mm^3, the “Median Tumor Volume” value (MDA-MB-231 tumors; Day 28) was 535.8 mm^3 and 507.4 mm^3 and 627.3 mm^3 and the “Median Tumor Volume” value (MDA-MB-231 tumors; Day 32) was 789.0 mm^3. The “Median Tumor Volume” value (MDA-MB-231 tumors; Day 35) was 819.7 mm^3 and 796.1 mm^3, the “Median Tumor Volume” value (MDA-MB-231 tumors; Day 36) was 1022.0 mm^3 and the “Median Tumor Volume” value (MDA-MB-231 tumors; Day 39) was 1294.2 mm^3. For the same compound, the “Median Tumor Volume” value (MDA-MB-231 tumors; Day 42) was 962.7 mm^3 and 1062.5 mm^3 and 1643.3 mm^3, the “Median Tumor Volume” value (MDA-MB-231 tumors; Day 46) was 1658.9 mm^3 and the “Median Tumor Volume” value (MDA-MB-231 tumors; Day 49) was 1301.3 mm^3 and 1416.3 mm^3 and 1938.0 mm^3. For the same compound, the “Median Tumor Volume” value (MDA-MB-231 tumors; Day 52) was 2199.4 mm^3, the “Median Tumor Volume” value (MDA-MB-231 tumors; Day 56) was 1673.3 mm^3 and the “Median Tumor Volume” value (MDA-MB-231 tumors; Day 63) was 1811.9 mm^3.
